The results in this text go back to patent US20260240846A1, “ZAK ALPHA KINASE (MAP3K20) INHIBITORS FOR USE IN THE TREATMENT OF ANEMIA” (UNIVERSIDAD DE MURCIA, priority 2023, published 2026).

The test system of experiment [1] is zebrafish larvae. As to the kind of experiment: Chemical treatment of zebrafish larvae by bath immersion; counting of neutrophils and erythrocytes. It counts as in vivo, Zebrafish (Danio rerio H.). As for the experimental part: FIG. 3. ZAKα regulates hematopoiesis in zebrafish through the Nlrp1 inflammasome. Number of neutrophils (B, D, H), erythrocytes (F) and macrophages (J), and caspase-1 activity (K) in 2 dpf larvae either treated from 1 to 2 dpf by bath immersion with 1 μM nilotinib and/or 100 μM anisomycin (A-D) or obtained by injecting one-cell stage embryos with standard or zaka crRNAs/Cas9 complexes (E-K). Representative images of neutrophils (A, C, G), erythrocytes (E) and macrophages (I) are also shown. Each dot represents one individual and the mean±SEM for each group is also shown. P values were calculated using one-way ANOVA and Tukey's multiple range test (B) or Student's t-test (D, F, H, J, K). n.s., non-significant; *P<0.05; **P<0.01; ***P<0.001.
FIG. 6. NLRP1 is activated by phosphorylation of the linker domain after activation of ZAKα and pharmacological inhibition of this signaling pathway promotes erythropoiesis in DBA. (A-D) Number of neutrophils (A-C), and caspase-1 activity (D) in 2 dpf larvae obtained by injection of one-cell stage embryos with human NLRP1 (wild type-WT, S107A and S107D) and treated from 1 to 2 dpf by bath immersion with 1 μM nilotinib (B-D). Representative images of neutrophils (arrows) are also shown in C. (E, F) BMMCs from a DBA patient were incubated for 2 weeks in human methylcellulose complete medium at 37° C. in the presence or absence of the indicated concentrations of nilotinib, and colonies were counted using standard morphological criteria. Each dot represents one individual and the mean±SEM for each group is also shown. P values were calculated by one-way ANOVA and Tukey's multiple range test. n.s., non-significant; *P<0.05; **P<0.01; ***P<0.001; ****P<0.0001.
FIG. 10. Imatinib and dasatinib promote erythropoiesis in human and zebrafish. (A) K562 cells were pretreated with the indicated concentrations of nilotinib, imatinib or dasatinib for 24 h and then differentiated with 50 μM hemin for 24 h. The amounts of NLRP1, GATA1, phosphorylated P38, total ZAKα and ACTB were then evaluated by western blot. (B) Zebrafish larvae were treated from 1 to 2 dpf with the indicated concentrations of nilotinib, imatinib or dasatinib. Representative images and number of neutrophils in larvae of 2 dpf treated by bath immersion with the indicated concentrations of imatinib and dasatinib. Each dot represents one individual and the mean±SEM for each group is also shown. P values were calculated by one-way ANOVA and Tukey's multiple range test. n.s., non-significant. ***P<0.001; ****P<0.0001.
FIG. 11. Ponatinib and bosutinib promote erythropoiesis in human and zebrafish. (A) K562 cells were pretreated with the indicated concentrations of nilotinib, ponatinib and bosutinib for 24 h and then differentiated with 50 μM hemin for the indicated times. The amounts of NLRP1, total ZAKα, GATA1, phosphorylated P38 and ACTB were then evaluated by western blot. (B) Number of neutrophils in larvae of 2 dpf treated by bath immersion with the indicated concentrations of ponatinib and bosutinib. Each dot represents one individual and the mean±SEM for each group is also shown. P values were calculated by one-way ANOVA and Tukey's multiple range test. n.s., non-significant, *P<0.05. **P<0.01. ***P<0.001.
Zebrafish (Danio rerio H.) were obtained from the Zebrafish International Resource Center and mated, staged, raised and processed as described in The Zebarfish Book. The lines Tg(mpx:eGFP)^t114, Tg(lyz:DsRED2)^n250, Tg(mfap4:mCherry)^ump6, Tg(gata1a:DsRed)^sd2 Tg(runx1:GAL4)^utn6), Tg(UAS-E1B:NTR-mCherry) and casper (mitfa^w2/w2; mpv17^a9/a9) were previously described. spint1a^hi2217Tg/hi2217Tg was isolated from insertional mutagenesis screens. The experiments performed comply with the Guidelines of the European Union Council (Directive 2010/63/EU) and the Spanish RD 53/2013. The experiments and procedures performed were approved by the Bioethical Committees of the University of Murcia (approval number #669/2020). […]

Experiment [2] relates to HSPCs from DBA patients. The experiment in a line: Colony assay of PBMCs from DBA patients in methylcellulose medium. The conditions noted are these: 2 weeks, indicated concentrations (FIG. 13A). It counts as cell-based, human. As for the experimental part: FIG. 13. […] PBMCs from DBA patients were incubated for 2 weeks in human methylcellulose complete medium at 37° C. in the presence or absence of the indicated concentrations of nilotinib, imatinib, dasatinib, bosutinib and ponatinib, and the number of erythroid (A) and myeloid (B) colonies counted using standard morphological criteria. Each dot represents one patient and the means±SEM for each group is also shown.

Experiment [3] has as its system RPS19-deficient CD34+ cells. The experiment in a line: Human RPS19-edited model of DBA: erythroid differentiation with EPO. The format is cell-based. To be noted: EPO 13 days, 0.1 μM nilotinib (FIGS. 14A-14C). As for the experimental part: FIG. 14. Nilotinib promotes erythropoiesis in a human RPS19-edited model of DBA. RPS19 gene was edited in primary human CD34^+/CD133^+ cells with CRISPR-Cas9 technology and the cells were then differentiated with EPO for 13 days in the presence of absence of 0.1 μM nilotinib. (A) Representative flow cytometry dot plots of CD235-APC vs. CD71-FITC from control and RPS19-edited cells at 13 days of differentiation with EPO. (B) Cell surface expression of CD235A from control (mock) and RPS19-deficient cells treated with DMSO or nilotinib. (C) Percentage of mature erythrocytes (CD71^−/CD235A^+) vs. percentage of erythroid progenitors (CD71^+/CD235A^−) in RPS19-deficient cells treated with DMSO or 0.1 μM nilotinib. (D) CASP1 activity of control and RPS19-deficient cells treated with DMSO or 0.1 μM nilotinib. MFI, mean fluorescence intensity.

In the case of `Cc1cn(-c2cc(NC(=O)c3ccc(C)c(Nc4nccc(-c5cccnc5)n4)c3)cc(C(F)(F)F)c2)cn1` [nilotinib], the “neutrophilia in the Spint1a-deficient model of neutrophilic inflammation” value in experiment [1] (larvae 2 dpf, bath immersion 1 to 2 dpf, 1 μM nilotinib) is listed as “reduced neutrophilia”. In addition, the “neutrophilia induced by NLRP1 with phosphomimetic S107D mutation” value in experiment [1] (larvae expressing human NLRP1 S107D, 1 μM nilotinib 1 to 2 dpf) is listed as “failed to reverse”. Besides, the “neutrophilia induced by wild type NLRP1” value in experiment [1] (larvae expressing human wild type NLRP1, 1 μM nilotinib 1 to 2 dpf) is “able to abrogate”. For the same compound, the erythropoiesis in zebrafish entry in experiment [1] (nilotinib (FIGS. 3E and 3F)) is “Promote erythropoiesis in zebrafish”. The neutrophil number entry in experiment [1] (wild type larvae 2 dpf, bath immersion 1 to 2 dpf, 1 μM nilotinib, 100 μM anisomycin) is “caused a decrease in neutrophil number”. Besides, the “defective erythropoiesis of HSPCs from DBA patients (erythroid colonies)” value in experiment [2] is listed as “alleviated defective erythropoiesis”. Moreover, the “defective erythropoiesis of RPS19-deficient CD34+ cells” value in experiment [3] is “rescued defective erythropoiesis”.
